# Like-named read-outs stand apart in the source and are kept apart here.
# How the values were obtained:
# Solubility experiments = format: physicochemical; conditions: water; aqueous
# Description: Compounds were diluted to 100 mM in DMSO and the further diluted to 500 μM in H2O, vortexed and centrifuged for 10 minutes at 13,000×g at ambient temperature.
# RGS8 = RGS8 (Homo sapiens (Human), UniProt P57771); assay: FCPIA: Gαo binding to RGS8; conditions: for IC50: read-out: RGS8 IC50; for RGS8 Hill Slope: Table 3
# Chain of RGS8 (P57771 other isoform, or with tags, fused parts or gaps): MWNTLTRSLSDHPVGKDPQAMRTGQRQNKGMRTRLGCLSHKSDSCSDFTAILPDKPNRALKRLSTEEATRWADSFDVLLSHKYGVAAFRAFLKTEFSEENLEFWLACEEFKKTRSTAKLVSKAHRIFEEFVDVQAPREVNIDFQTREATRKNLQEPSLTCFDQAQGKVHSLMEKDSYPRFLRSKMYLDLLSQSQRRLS
# Text: (§1) FCPIA Dose Response and Reversibility Experiments:
# 107C RGS8 (C160S) = 107C RGS8 (C160S) (Homo sapiens (Human), UniProt P57771, C160S); assay: FCPIA: RGS8 mutant 107C; format: binding
# Chain of 107C RGS8 (C160S) (P57771 other isoform, or with tags, fused parts or gaps C160S): as the sequence (P57771 other isoform, or with tags, fused parts or gaps) above, with C160S counted along it
# Description: (§2) With the exception of RGS8 mutants, all RGS and G proteins were prepared as previously described (Roman, D., et al., Mol Pharmacol). […] Mutagenesis was performed using the QuickChange Multi-site Directed Mutagenesis kit (Agilent, La Jolla Calif.).
# (§3) This protein only contains two cysteines in the RGS homology domain, making it a simpler model system to study than other RGS proteins. Each cysteine from the RGS8 RGS homology (RH) domain was individually mutated to serine and the activity of the compound was analyzed via FCPIA (FIG. 6).
# δ-opioid receptor = assay: cAMP accumulation in SH-SY5Y cells, SNC80; format: cell-based
# Description: (§4) Accumulated cAMP was measured by radioimmunoassay in a 10-15 μl aliquot of the supernatant from each sample following the manufacturer's instructions (cAMP radioimmunoassay kit from GE Healthcare, Piscataway, N.J.). Data are from four separate experiments, each carried out in duplicates and calculated as percent inhibition.
# as §4, with “Cells were plated into 24-well plates to reach ˜90% confluency on the day of assay and washed once with fresh serum-free medium. […] Accumulated” for “Accumulated”
# 160C RGS8 (C107S) = 160C RGS8 (C107S) (Homo sapiens (Human), UniProt P57771, C107S); assay: FCPIA: RGS8 mutant 160C; format: binding
# Chain of 160C RGS8 (C107S) (P57771 other isoform, or with tags, fused parts or gaps C107S): as the sequence (P57771 other isoform, or with tags, fused parts or gaps) above, with C107S counted along it
# Description: as §2, §3
# HEK-293 cells = assay: WST-1 cell viability; format: cell-based; conditions: up to 100 μM, overnight
# Description: WST-1 Cell Viability Studies:
# HEK-293 cells were plated to a density of 30,000/well in 96-well plates and grown for 48 hours in Dulbecco's Modified Eagle Medium (DMEM) containing 10% fetal bovine serum and Penicillin (100 units/ml)-Streptomycin (100 μg/ml) under 5% CO2 at 37° C. Compound treatment was performed overnight in DMEM containing 0.1% bovine serum albumin under 5% CO2 at 37° C. After compound incubation ten microliters of the WST-1 reagent (Hoffmann-La Roche, Switzerland) was added to every well and the cells were incubated for 1 hour under 5% CO2 at 37° C. Absorbance was measured at 450 nm using a Victor II plate reader (Perkin-Elmer, Picastaway, N.J.).
# RGS4 [1] = molecular target: RGS4 (Homo sapiens (Human), UniProt P49798); assay: FCPIA: Gαo binding to RGS4; conditions: for RGS4 Hill Slope: Table 3
# Chain of RGS4 (Homo sapiens (Human), UniProt P49798) (P49798 whole entry, looked up): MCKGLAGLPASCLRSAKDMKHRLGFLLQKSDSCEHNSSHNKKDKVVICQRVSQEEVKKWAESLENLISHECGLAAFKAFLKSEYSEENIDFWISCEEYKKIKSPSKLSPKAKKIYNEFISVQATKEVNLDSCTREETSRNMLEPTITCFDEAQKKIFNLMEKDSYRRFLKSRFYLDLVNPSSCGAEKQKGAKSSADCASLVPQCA
# Text: as §1
# HEK293 cells = assay: Calcium mobilization induced by compound alone; format: cell-based; conditions: Homo sapiens, HEK293; read-out: Calcium transient (% 50014);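 note: percent of response to 10 µM reference CCG-50014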
# Description: (§5) Calcium Mobilization Experiments:
# (§6) A stable cell line was developed based upon the HEK-293 Flp-In TREx cell line (Invitrogen, Carlsbad, Calif.) that stably express the muscarinic M3 receptor and have human RGS4 expression under doxycycline control. Cells were maintained in DMEM supplemented with 10% fetal bovine serum and Penicillin (100 units/ml)-Streptomycin (100 μg/ml) under 5% CO2 at 37° C. For experiments, cells were split into 96-well black, clear bottom, poly-D-lysine coated microtiter plates (Nunc, Cat. #152037) at a density of 20,000 cells/well in DMEM containing 10% fetal bovine serum and Penicillin (100 units/ml), Streptomycin (100 μg/ml). RGS4 expression was induced by supplementing the medium with 1 μg/mL doxycycline for 24-48 hours before experimentation. Cells were loaded with Fluo-4 No Wash dye in buffer for 30 minutes at 37° C. Compounds and/or carbachol were added to the wells and the fluorescence intensity was measured using a FlexStation (Molecular Devices, Sunnyvale, Calif.) plate reader. Data analysis was performed by calculating the area under the curve or maximal fluorescence intensity from a 120 second kinetic measurement.
# RGS4 [2] = assay: FCPIA: Gαo binding to RGS4; conditions: for RGS4 Hill Slope: Table 3
# Text: as §1
# M3 muscarinic receptor = assay: Carbachol-induced Ca2+ response, M3 cells without RGS4 dependence; format: cell-based; conditions: 10 μM (FIG. 20) or as stated
# Description: as §5, §6
# as §6, with “Calcium signaling transients: A” for “A”, “units/ml)-Streptomycin” for “units/ml), Streptomycin”
# papain = papain (Carica papaya (Papaya), UniProt P00784); assay: biochemical; format: biochemical
# Chain of papain (P00784 134-345): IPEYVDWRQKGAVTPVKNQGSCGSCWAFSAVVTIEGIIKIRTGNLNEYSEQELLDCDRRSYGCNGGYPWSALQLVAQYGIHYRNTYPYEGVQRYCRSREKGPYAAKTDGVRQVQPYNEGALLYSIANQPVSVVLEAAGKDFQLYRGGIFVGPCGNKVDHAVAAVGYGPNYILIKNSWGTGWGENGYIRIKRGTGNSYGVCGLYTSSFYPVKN
# Text: Papain (Sigma-Aldrich, St. Louis, Mo.) activity was monitored by the increase in fluorescence caused by the liberation of fluorescein from autoquenched fluorescein-conjugated casein (AnaSpec, San Jose, Calif.).
# [3] = Heart rate and blood pressure in freely-moving rats; format: in vivo; conditions: 0.1 mg/kg intraperitoneal vs saline
# Text: The muscarinic agonist carbachol can induce a transient bradycardic effect by activating M2 receptors in the SAN.
# [4] = Table 2, mean of two independent FCPIA experiments
# [5] = Table 3, duplex FCPIA, average of two experiments
Structure (SMILES),Emax at 10 µM (HEK293 cells) [%],RGS8 Hill Slope (RGS8),"IC50 (RGS8; Table 6, FCPIA) [µM]",IC50 (RGS8; [5]) [µM],RGS4 Hill Slope (RGS4 [2]),also measured
"Cc1ccc(-n2sc(=O)n(Cc3ccc(F)cc3)c2=O)cc1 [CCG-50014, 4-[(4-fluorophenyl)methyl]-2-(4-methylphenyl)-1,2,4-thiadiazolidine-3,5-dione]",–,–,–,–,–,"solubility (Solubility experiments): ~100 µM; IC50 (RGS8; [4]): 1.1 µM; Ki (RGS8; read-out: experimentally derived Ki value): 0.3 µM; inhibition at 20 µM (107C RGS8 (C160S); 20 μM, all time points, read-out: irreversible inhibition of 107C RGS8): ~20%; IC50 (107C RGS8 (C160S); FIG. 6): 46.5 µM; inhibition of forskolin-stimulated adenylate cyclase by SNC-80 with compound (δ-opioid receptor; 100 nM SNC-80 + 100 μM CCG-50014): 44%; effect on forskolin-stimulation of cAMP production (δ-opioid receptor; 100 μM): no effect; inhibition at 20 µM (160C RGS8 (C107S); 20 μM, all time points, read-out: irreversible inhibition of 160C RGS8): ~50%; IC50 (160C RGS8 (C107S); FIG. 6): 0.71 µM; cell viability (WST-1) (HEK-293 cells): did not reduce cell viability below control levels"
"Cc1ccc(-n2sc(=O)n(Cc3ccccc3)c2=O)cc1 [CCG-203724, 2-p-tolyl-4-benzyl-1,2,4-thiadiazolidine-3,5-dione]",177,−0.94,7.5,–,–,Fold Selectivity (R8/R4) (RGS4 [1]): 536; Fold Selectivity (RGS8 IC50/ RGS4 IC50) (RGS4 [1]): 536; Selectivity RGS4/ RGS8 (RGS4 [1]): 519; RGS4 Hill Slope (RGS4 [1]): −3.63; IC50 (RGS4 [1]; [5]): 0.014 µM
"O=c1sn(-c2ccc(Cl)cc2)c(=O)n1Cc1ccc(F)cc1 [CCG-203727, 2-(4-chlorophenyl)-4-(4-fluorobenzyl)-1,2,4-thiadiazolidine-3,5-dione]",158,−1.06,–,7.6,–,Fold Selectivity (R8/R4) (RGS4 [1]): 543; Fold Selectivity (RGS8 IC50/ RGS4 IC50) (RGS4 [1]): 543; Selectivity RGS4/ RGS8 (RGS4 [1]): 564; RGS4 Hill Slope (RGS4 [1]): −1.66; IC50 (RGS4 [1]; [5]): 0.014 µM
"CCCCn1sc(=O)n(CC(C)C)c1=O [CCG-203764, 2-butyl-4-isobutyl-1,2,4-thiadiazolidine-3,5-dione]",142,−0.44,98,–,–,Fold Selectivity (R8/R4) (RGS4 [1]): 2513; Fold Selectivity (RGS8 IC50/ RGS4 IC50) (RGS4 [1]): 2513; Selectivity RGS4/ RGS8 (RGS4 [1]): 2540; RGS4 Hill Slope (RGS4 [1]): −0.87; IC50 (RGS4 [1]; [5]): 0.039 µM
O=C1C=C(Br)C(=O)N1Cc1ccccc1 [CCG-203780],–,–,–,–,–,IC50 (RGS4 [1]; [4]): 32 µM; IC50 (RGS8; [4]): > 100 µM
"Cc1cccc(-n2sc(=O)n(Cc3ccccc3)c2=O)c1 [CCG-203785, 2-(3-methylphenyl)-4-benzyl-1,2,4-thiadiazolidine-3,5-dione]",145,−0.73,–,21.3,–,Fold Selectivity (R8/R4) (RGS4 [1]): 561; Fold Selectivity (RGS8 IC50/ RGS4 IC50) (RGS4 [1]): 561; Selectivity RGS4/ RGS8 (RGS4 [1]): 558; RGS4 Hill Slope (RGS4 [1]): −1.13; IC50 (RGS4 [1]; [5]): 0.038 µM
"CCn1sc(=O)n(CCOC)c1=O [CCG-203920, 2-ethyl-4-(2-methoxyethyl)-1,2,4-thiadiazolidine-3,5-dione]",–,–,36.1,–,–,"IC50 (RGS4 [2]; Table 6, FCPIA, read-out: RGS4 IC50): 0.0543 µM; effect on carbachol-induced Ca2+ response (RGS-independent) (M3 muscarinic receptor): no effect"
"CCN1C(=O)C=CC1=O [N-ethyl maleimide, reference compound]",–,–,–,–,–,inhibition of papain by general cysteine alkylators (papain): no effect; effect on RGS8 (RGS8; FCPIA): no effect
"O=c1sn(-c2ccccc2)c(=O)n1Cc1ccc(Cl)c(Cl)c1 [S29, 2-phenyl-4-(3,4-dichlorobenzyl)-1,2,4-thiadiazolidine-3,5-dione]",47.6,−0.80,7.5,7.5,−0.96,–
"O=c1sn(-c2ccc(Cl)cc2)c(=O)n1Cc1ccc(Cl)c(Cl)c1 [S30, 2-(4-chlorophenyl)-4-(3,4-dichlorobenzyl)-1,2,4-thiadiazolidine-3,5-dione]",-0.1,−0.76,16.7,16.7,−1.31,–
"COc1ccc(-n2sc(=O)n(Cc3ccc(Cl)c(Cl)c3)c2=O)cc1 [S31, 2-(4-methoxyphenyl)-4-(3,4-dichlorobenzyl)-1,2,4-thiadiazolidine-3,5-dione]",202,−0.64,5.9,5.9,−0.86,–
"O=c1sn(-c2ccc(Cl)c(Cl)c2)c(=O)n1Cc1ccc(Cl)c(Cl)c1 [S32, 2-(3,4-dichlorophenyl)-4-(3,4-dichlorobenzyl)-1,2,4-thiadiazolidine-3,5-dione]",49.6,−0.85,125,125,−0.87,–
"Cc1ccc(Cn2sc(=O)n(Cc3ccc(Cl)c(Cl)c3)c2=O)cc1 [S33, 2-(4-methylbenzyl)-4-(3,4-dichlorobenzyl)-1,2,4-thiadiazolidine-3,5-dione]",51.7,−0.71,109,109,−1.33,–
"Cc1ccc(-n2sc(=O)n(Cc3ccc(C(C)(C)C)cc3)c2=O)cc1 [S34, 2-p-tolyl-4-(4-t-butylbenzyl)-1,2,4-thiadiazolidine-3,5-dione]",18.9,–,> 100,> 100,−1.36,–
"CC(C)(C)c1ccc(Cn2c(=O)sn(-c3ccccc3)c2=O)cc1 [S35, 2-phenyl-4-(4-t-butylbenzyl)-1,2,4-thiadiazolidine-3,5-dione]",14.4,–,> 100,> 100,−1.72,–
"CC(C)(C)c1ccc(Cn2c(=O)sn(-c3ccc(C(C)(C)C)cc3)c2=O)cc1 [S36, 2-(4-t-butylphenyl)-4-(4-t-butylbenzyl)-1,2,4-thiadiazolidine-3,5-dione]",14.8,–,> 100,> 100,−1.70,–
"O=C1C=C(Br)C(=O)N1Cc1ccccc1 [S37, 1-benzyl-3-bromo-1H-pyrrole-2,5-dione]",–,–,144,–,–,"IC50 (RGS4 [1]; Table 6, FCPIA): 32.9 µM"
"C[N+](C)(C)CCOC(N)=O [carbachol, reference compound]",–,–,–,–,–,heart rate after carbachol [3]: significant decrease in heart rate
"NC(=O)CI [iodoacetamide, reference compound]",–,–,–,–,–,inhibition of papain by general cysteine alkylators (papain): dose-dependent; effect on Gα0 binding to the RGS proteins tested (RGS4 [1]; FCPIA): no effect
